Test results from patent publication US20210371413A1, “POLYCYCLIC AMIDES AS CYTOTOXIC AGENTS” (FEMTOGENIX LIMITED, priority 2018, published 2021).
Values after ≈ are worked out from the molar mass of the structure shown. Read-outs that look alike come from different tables or passages of the source.

How the values were obtained:
Type in all cases: cell-based
[1] = tested on: Klebsiella pneumoniae KP4631; test: MIC assay, Klebsiella pneumoniae KP4631
Procedure: (§1) The antimicrobial activity of a selection of compounds were evaluated in a Gram-negative, Gram-positive and multi-resistant bacteria using the standard minimum inhibitory concentration (MIC) assay for an overnight (16-20 hour) incubation period. Commercially marketed antibiotics (Table 3) were used as positive controls during the study.
(§2) Mueller-Hinton broth (MH Broth) (Sigma-Aldrich; Millipore, cat. no. 70192) and Mueller-Hinton agar (MHA) (Sigma-Aldrich; Millipore, cat. no. 70191) were prepared as per manufacturer's instructions and sterilized by autoclaving. Approximately 20 mL of MHA was poured onto 15×100 mm petri dishes and allowed to set. Agar plates were then stored in plastic bags in an inverted position at 4° C.
(§3) Bacterial strains were provided in the form of a glycerol stock, stored at −80° C. For the purpose of preparation of bacterial suspension, appropriate strains were removed from −80° C. storage onto dry ice and not allowed to freeze-thaw.
(§4) Stock solutions of 16, 45 and 73 were provided in DMSO at 1.28 mg/mL concentration. From this stock solution, working solutions of the desired concentration were prepared by diluting with MHB.
(§5) MIC assay methodology was adapted from previously published work.
(§6) Bacterial isolate to be tested was streaked onto a nutrient-rich MH agar plate and incubated overnight at 37° C. in order to obtain single colonies.
(§7) After overnight incubation, single colonies with the same morphological appearance were chosen from the agar plate. These were touched using a sterile loop and transferred into a tube containing 10 mL of a MH broth. They were then mixed using vortex mixer and incubated at 35-37° C. in a shaker at 200 r.p.m. overnight.
(§8) Determination of OD600 and cfu/mL count OD600 (the optical density of a sample measured at a wavelength of 600 nm) of the overnight culture was measured. Because of the loss of linearity at OD600 values […], it was necessary to dilute the sample until the OD600 value was below 1.0. For all tested bacteria, a dilution of 1:10 was appropriate (100 μL in 900 μL broth).
(§9) The overnight culture was then diluted 1:100 using sterile tubes and MH broth (dilution: 10^−2). Serial dilution was then performed six times until dilution of 10^−8 was reached. 100 μL of dilutions 10^−7 and 10^−8 were plated onto MH agar plates in triplicate using a sterile cell spreader and incubated overnight at 37° C.
(§10) After overnight incubation, colonies on plates were counted and cfu per mL calculated. The following formula was applied: […]
(§11) After overnight incubation, the OD600 was measured and the overnight culture was diluted accordingly to obtain 1×10^8 cfu/mL. […]
(§12) The 96-well plates were read using a SpectraMax plate reader at an absorbance of 600 nm. […]

[2] = tested on: EMRSA 16; test: MIC assay, EMRSA 16; conditions: Staphylococcus aureus
Procedure: as §1, §2, §3, §4, §5, §6, §7, §8, §9, §10, §11, §12

[3] = tested on: E. coli K12; test: MIC assay, E. coli K12; conditions: Escherichia coli, K12, E. coli K12 (Gram-negative), overnight (16-20 hour) incubation
Procedure: as §1, §2, §3, §4, §5, §6, §7, §8, §9, §10
For the generation of overnight cultures to be used for preparation of the bacterial suspension for MIC tests, a single colony of bacteria was selected using a sterile loop and a sterile tube with MH broth was inoculated followed by overnight incubation at […] in a shaker set to 200 r.p.m.
After overnight incubation, the OD600 was measured and the overnight culture was diluted accordingly to obtain 1×10^8 cfu/mL.
Free payload dilutions were prepared as per Table 4.
96-well sterile microtiter plates were used for MIC assay. The plate was filled with the respective free payload or positive control antibiotic concentrations in triplicate. 100 μL of broth was pipetted in the sterility control well (SC, column 12) and 50 μL in the growth control well (GC, column 11).
1×10^8 cfu/mL bacterial suspension was diluted 1:100 and 50 μL added to each well apart from SC. […]
as §12

[4] = tested on: REH (ALL); test: In vitro cytotoxicity, MTT assay, REH; conditions: REH (ALL), MTT, 72 hour incubation; read-out: Cytotoxicity
Procedure: (§13) The in vitro cytotoxicity of a selection of compounds were evaluated in a panel of cell lines using the standard MTT assay for a 72 hour incubation period (Table 2). Free payloads produced cytotoxicities in the nanomolar range.
(§14) Tumor cell lines were maintained in RPMI1640 medium supplemented with 10% heat-inactivated fetal bovine serum, 2 mM L-glutamine and 1 mM sodium pyruvate. 1800 cells per well were seeded in a volume of 180 μl in a 96-well flat bottom polystyrene plate. The cells were allowed to adhere overnight at 37° C. in a CO2 incubator. Ligands were initially formulated in DMSO, and stocks stored at −80° C. They were then further formulated at lox concentration in RPMI1640 medium. 20 ul of diluted samples were added into each treatment well. On each plate, blank wells with no cells, and untreated wells containing cells, were included. Plates were then cultured at 37° C. in a CO2 incubator for 72 hrs. Cytotoxicity was evaluated using a tetrazolium salt-based assay, the MTT assay. After 72 hours, the supernatant was removed from each well and 200 μl of a sterile filtered 500 μg/ml MTT solution in water added to each well. The plates were then incubated at 37° C. in a CO2 incubator for 4 hrs. The supernatant was then removed and the formazan crystals formed solubilized by adding 150 μl of DMSO to each well. The plate was then read on a plate reader at 540 nm, and percentage cell survival calculated as follows: ((mean absorbance treated wells at concentration x−mean absorbance blank wells)+(mean absorbance untreated wells at concentration x−mean absorbance blank wells))×100. Data were plotted as concentration in nM vs. % cell survival in Microsoft Excel, and IC50 values (concentration where cell survival is reduced by a half) were determined from the graph.

[5] = tested on: A431 (Skin); test: In vitro cytotoxicity, MTT assay, A431; conditions: Homo sapiens, A-431; A431 (Skin), MTT, 72 hour incubation; read-out: Cytotoxicity
Procedure: as §13, §14

[6] = tested on: U138-MG (Glioblastoma); test: In vitro cytotoxicity, MTT assay, U138-MG; conditions: Homo sapiens; U138-MG (Glioblastoma), MTT, 72 hour incubation; read-out: Cytotoxicity
Procedure: as §13, §14

COC(=O)c1cc(-c2ccc(NC(=O)c3cc(NC(=O)CCCOc4cc5c(cc4OC)C(=O)N4CCCC[C@H]4CN5)cn3C)cc2)cn1C [Compound 45, Methyl (S)-4-(4-(4-(4-((2-methoxy-12-oxo-5,6,6a,7,8,9,10,12-octahydrobenzo[e]pyrido[1,2-a][1,4]diazepin-3-yl)oxy)butanamido)-1-methyl-1H-pyrrole-2-carboxamido)phenyl)-1-methyl-1H-pyrrole-2-carboxylate]
MIC ([1]; Klebsiella pneumoniae, KP4631): > 128 µg/mL | MIC [2]: 0.5 µg/mL (≈ 0.732 µM) | MIC [3]: > 128 µg/mL

COc1cc2c(cc1OCCCC(=O)Nc1cc(C(=O)Nc3ccc(-c4cc(C(=O)Nc5ccncc5)n(C)c4)cc3)n(C)c1)NC[C@@H]1CCCCN1C2=O [Compound 73, (S)-4-(4-((2-Methoxy-12-oxo-5,6,6a,7,8,9,10,12-octahydrobenzo[e]pyrido-[1,2-a][1,4]diazepin-3-yl)oxy)butanamido)-1-methyl-N-(4-(1-methyl-5-(pyridin-4-ylcarbamoyl)-1H-pyrrol-3-yl)phenyl)-1H-pyrrole-2-carboxamide]
IC50 [4]: 37.5 nM | MIC ([1]; Klebsiella pneumoniae, KP4631): 4 to 8 µg/mL (≈ 5.37 to 10.7 µM) | IC50 [5]: 144 nM | IC50 [6]: 301 nM | MIC [2]: 0.5 µg/mL (≈ 0.671 µM) | MIC [3]: 2 µg/mL (≈ 2.69 µM)

NC[C@H]1O[C@H](O[C@H]2[C@H](O)[C@@H](O[C@H]3O[C@H](CO)[C@@H](O)[C@H](N)[C@H]3O)[C@H](N)C[C@@H]2N)[C@H](O)[C@@H](O)[C@@H]1O [Kanamycin, reference compound]
MIC ([3]; read-out: MIC): 2 to 4 µg/mL (≈ 4.13 to 8.26 µM)

CN[C@H](CC(C)C)C(=O)N[C@H]1C(=O)N[C@@H](CC(N)=O)C(=O)N[C@H]2C(=O)N[C@H]3C(=O)N[C@H](C(=O)N[C@H](C(=O)O)c4cc(O)cc(O)c4-c4cc3ccc4O)[C@H](O)c3ccc(c(Cl)c3)Oc3cc2cc(c3O[C@@H]2O[C@H](CO)[C@@H](O)[C@H](O)[C@H]2O[C@H]2C[C@](C)(N)[C@H](O)[C@H](C)O2)Oc2ccc(cc2Cl)[C@H]1O [Vancomycin, reference compound]
MIC ([2]; EMRSA 16 (Gram-positive), overnight (16-20 hour) incubation, read-out: MIC): 1 µg/mL (≈ 0.69 µM)

Gentamicin [reference compound]
MIC ([1]; Klebsiella pneumoniae KP4631 (multi-resistant), overnight (16-20 hour) incubation): 1 to 2 µg/mL
